Assay results: patent US20250257041A1, “INDUCERS OF INTEGRATED STRESS RESPONSE TO TREAT CANCER” (The Board of Regents of The University of Texas System, priority 2022, published 2025)

What follows are molecules tested on HCT116 WT (assay: Proliferation of HCT116 colorectal cell line, Cell TiterGlo). Conditions: Homo sapiens, HCT-116, read-out: HCT116 IC50 (uM) HCT116 WT.
Format: cell-based, human
Protocol: Briefly, compounds were tested for their effect on proliferation of HCT116 colorectal cell lines using Cell TiterGlo (Promega). Each compound was tested in a 10-point dose response experiment in triplicate. Multiple values in the column titled HCT116 WT reflect separate independent experiments. The three columns titled “HCT116 WT (repeat)”, “HCT116-CGN2KO” and “HCT116 WT+ISRIB” provide data for selected compounds that were tested simultaneously under three conditions. The HCT116 WT column lists IC50 against the wild type HCT116 colorectal cancer cell line. The HCT116-CGN2KO lists IC50 data for cells in which one component of the integrated stress response, GCN2, has been knocked out using CRISPR technology.
`CSc1cccc(C(=O)Nc2cc(-c3ccc(NC(=O)c4ccccc4)cc3)nn2C)c1` [SW389160, N-(3-(4-Benzamidophenyl)-1-methyl-1H-pyrazol-5-yl)-3-(methylthio)benzamide] was tested, and the IC50 was 0.226 µM.

Same assay, conditions: Homo sapiens, HCT-116, read-out: HCT116 IC50 (uM) HCT116 WT (repeat)
Molecule `CSc1cccc(C(=O)Nc2cc(-c3ccc(NC(=O)c4ccccc4)cc3)nn2C)c1` [SW389160, N-(3-(4-Benzamidophenyl)-1-methyl-1H-pyrazol-5-yl)-3-(methylthio)benzamide] has an IC50 of 0.29 µM.

Same assay, conditions: Homo sapiens, HCT-116, wild type HCT116; 10-point dose response in triplicate; multiple values = separate independent experiments; read-out: HCT116 IC50 (uM) HCT116 WT
`Cn1nc(-c2ccc(NC(=O)C3CCCO3)cc2)cc1NC(=O)c1ccccc1` (single isomer, unassigned) [SW394516 (isomer 2)] showed an IC50 of 0.77 µM.
In the case of `Cn1nc(-c2ccc(NC(=O)c3ccccc3Cl)cc2)cc1NC(=O)C1CCCC(NC(=O)OC(C)(C)C)C1` (single isomer, unassigned) [SW394868-isomer 2], the IC50 was 0.12 µM.
In the case of `Cn1nc(-c2ccc(NC(=O)c3ccccc3Cl)cc2)cc1NC(=O)[C@H]1CCC[C@@H](N)C1` (single isomer, unassigned) [SW394869-isomer 1], the IC50 was 0.04 µM.
Work on `Cn1nc(-c2ccc(NC(=O)c3ccccc3)cc2)cc1NC(=O)c1ccccc1` [SW106593, N-(4-(5-Benzamido-1-methyl-1H-pyrazol-3-yl)phenyl)benzamide] yielded an IC50 of 0.22 µM.
For `COc1ccc(C(=O)Nc2cc(-c3ccc(NC(=O)OC(C)(C)C)cc3)nn2C)cc1` [SW388709, tert-Butyl-(4-(5-(4-methoxybenzamido)-1-methyl-1H-pyrazol-3-yl)phenyl)carbamate], the IC50 was 16 µM.
In the case of `COc1cccc(C(=O)Nc2ccc(-c3cc(NC(=O)c4ccccc4)n(C)n3)cc2)c1` [SW388711, N-(4-(5-Benzamido-1-methyl-1H-pyrazol-3-yl)phenyl)-3-methoxybenzamide], the IC50 was 1.09 µM.
`COc1cccc(C(=O)Nc2cc(-c3ccc(NC(=O)OC(C)(C)C)cc3)nn2C)c1` [SW388712, tert-Butyl (4-(5-(3-methoxybenzamido)-1-methyl-1H-pyrazol-3-yl)phenyl)carbamate] showed an IC50 of 0.69 µM.
`Cn1nc(-c2ccc(NC(=O)OC(C)(C)C)cc2)cc1NC(=O)c1ccccc1` [SW388713, tert-Butyl (4-(5-benzamido-1-methyl-1H-pyrazol-3-yl)phenyl)carbamate] showed an IC50 of 1.1 µM.
In the case of `Cn1nc(-c2ccc(N)cc2)cc1NC(=O)c1ccccc1` [SW388714, N-(3-(4-Aminophenyl)-1-methyl-1H-pyrazol-5-yl)benzamide], the IC50 was 16 µM.
`COc1ccc(C(=O)Nc2ccc(-c3cc(NC(=O)c4ccccc4)n(C)n3)cc2)cc1` [SW388716, N-(4-(5-Benzamido-1-methyl-1H-pyrazol-3-yl)phenyl)-4-methoxybenzamide] gave an IC50 of 19 µM.
`COc1ccc(C(=O)Nc2cc(-c3ccc(NC(=O)c4ccccc4)cc3)nn2C)cc1` [SW388718, N-(3-(4-Benzamidophenyl)-1-methyl-1H-pyrazol-5-yl)-4-methoxybenzamide] showed an IC50 of 2.03 µM.
Molecule `C#Cc1cccc(C(=O)Nc2cc(-c3ccc(NC(=O)c4ccccc4N=[N+]=[N-])cc3)nn2C)c1` [SW393185, 2-Azido-N-(4-(5-(3-ethynylbenzamido)-1-methyl-1H-pyrazol-3-yl)phenyl)benzamide] has an IC50 of 0.13 µM.
For `C#CCOc1cccc(C(=O)Nc2cc(-c3ccc(NC(=O)c4ccccc4N=[N+]=[N-])cc3)nn2C)c1` [SW393186, 2-Azido-N-(4-(1-methyl-5-(3-(prop-2-yn-1-yloxy)benzamido)-1H-pyrazol-3-yl)phenyl)benza-mide], the IC50 was 0.1 µM.
`Cn1nc(-c2ccc(NC(=O)c3ccccc3Cl)cc2)cc1NC(=O)c1cccc(C(=O)c2ccccc2)c1` [SW393187, N-(4-(5-(3-benzoylbenzamido)-1-methyl-1H-pyrazol-3-yl)phenyl)-2-chlorobenzamide] gave an IC50 of 0.14 µM.
`Cn1nc(-c2ccc(NC(=O)c3ccccc3Cl)cc2)cc1NC(=O)c1ccc(C(=O)c2ccccc2)cc1` [SW393188, N-(4-(5-(4-benzoylbenzamido)-1-methyl-1H-pyrazol-3-yl)phenyl)-2-chlorobenzamide] showed an IC50 of 0.6 µM.
`C#CCOCc1ccccc1C(=O)Nc1ccc(-c2cc(NC(=O)c3ccccc3)n(C)n2)cc1` [SW393189, N-(4-(5-benzamido-1-methyl-1H-pyrazol-3-yl)phenyl)-2-((prop-2-yn-1-yloxy)methyl)benzamide] showed an IC50 of 0.06 µM.
With `C#CCOc1cccc(C(=O)Nc2cc(-c3ccc(NC(=O)c4cc(N=[N+]=[N-])ccc4Cl)cc3)nn2C)c1` [SW393213, 5-Azido-2-chloro-N-(4-(1-methyl-5-(3-(prop-2-yn-1-yloxy)benzamido)-1H-pyrazol-3-yl)phe-nyl)benzamide] the IC50 was 0.37 µM.
`CCn1nc(-c2ccc(NC(=O)c3ccccc3Cl)cc2)cc1NC(=O)c1ccccc1` [SW393214, N-(4-(5-Benzamido-1-ethyl-1H-pyrazol-3-yl)phenyl)-2-chlorobenzamide] was tested, and the IC50 was 0.57 µM.
For `O=C(Nc1cc(-c2ccc(NC(=O)c3ccccc3Cl)cc2)nn1Cc1ccccc1)c1ccccc1` [SW393215, N-(4-(5-Benzamido-1-benzyl-1H-pyrazol-3-yl)phenyl)-2-chlorobenzamide], the IC50 was 0.62 µM.
`Cc1c(-c2ccc(NC(=O)c3ccccc3Cl)cc2)nn(C)c1NC(=O)c1ccccc1` [SW393216, N-(4-(5-Benzamido-1,4-dimethyl-1H-pyrazol-3-yl)phenyl)-2-chlorobenzamide] showed an IC50 of 0.07 µM.
Work on `Cc1ccccc1C(=O)Nc1cc(-c2ccc(NC(=O)c3ccccc3Cl)cc2)nn1C` [SW393217, 2-chloro-N-(4-(1-methyl-5-(2-methylbenzamido)-1H-pyrazol-3-yl)phenyl)benzamide] yielded an IC50 of 0.03 µM.
`Cn1nc(-c2ccc(NC(=O)c3ccccc3Cl)cc2)cc1NC(=O)c1ccccc1Br` [SW393218, 2-bromo-N-(3-(4-(2-chlorobenzamido)phenyl)-1-methyl-1H-pyrazol-5-yl)benzamide] showed an IC50 of 0.02 µM.
`Cn1nc(-c2ccc(NC(=O)c3ccccc3F)cc2)cc1NC(=O)c1ccccc1` [SW393241, N-(4-(5-Benzamido-1-methyl-1H-pyrazol-3-yl)phenyl)-2-fluorobenzamide] showed an IC50 of 0.04 µM.
Work on `C#Cc1cccc(C(=O)Nc2cc(-c3ccc(NC(=O)c4ccc(C5(C(F)(F)F)N=N5)cc4)cc3)nn2C)c1` [SW393242, 3-Ethynyl-N-(1-methyl-3-(4-(4-(3-(trifluoromethyl)-3H-diazirin-3-yl)benzamido)phenyl)-1H-pyrazol-5-yl)benzamide] yielded an IC50 of 1.35 µM.
Work on `C#Cc1cccc(C(=O)Nc2cc(-c3ccc(NC(=O)c4cccc(C5(C(F)(F)F)N=N5)c4)cc3)nn2C)c1` [SW393243, 3-Ethynyl-N-(1-methyl-3-(4-(3-(3-(trifluoromethyl)-3H-diazirin-3-yl)benzamido)phenyl)-1H-pyrazol-5-yl)benzamide] yielded an IC50 of 17 µM.
In the case of `Cn1nc(-c2ccc(NC(=O)c3ccccc3Cl)cc2)cc1NC(=O)c1ccccc1F` [SW393244, 2-chloro-N-(4-(5-(2-fluorobenzamido)-1-methyl-1H-pyrazol-3-yl)phenyl)benzamide], the IC50 was roughly 0.01 µM.
With `Cn1nc(-c2ccc(NC(=O)c3ccccc3-c3ccccc3)cc2)cc1NC(=O)c1ccccc1` [SW393270, N-(4-(5-benzamido-1-methyl-1H-pyrazol-3-yl)phenyl)-[1,1′-biphenyl]-2-carboxamide] the IC50 was 0.13 µM.
`COc1cc(-c2cc(NC(=O)c3ccccc3)n(C)n2)ccc1NC(=O)c1ccccc1Cl` [SW393279, N-(4-(5-benzamido-1-methyl-1H-pyrazol-3-yl)-2-methoxyphenyl)-2-chlorobenzamide] was tested, and the IC50 was greater than 10 µM.
With `C#CCOCc1ccccc1C(=O)Nc1ccc(-c2cc(NC(=O)c3cccc(N=[N+]=[N-])c3)n(C)n2)cc1` [SW393280, N-(4-(5-(3-azidobenzamido)-1-methyl-1H-pyrazol-3-yl)phenyl)-2-((prop-2-yn-1-yloxy)methyl)benzamide] the IC50 was 0.12 µM.
Work on `Cn1nc(-c2ccc(C(=O)Nc3ccccc3Cl)cc2)cc1NC(=O)c1ccccc1` [SW393293, 4-(5-benzamido-1-methyl-1H-pyrazol-3-yl)-N-(2-chlorophenyl)benzamide] yielded an IC50 of 0.19 µM.
For `Cn1nc(-c2ccc(NC(=O)c3ccccc3Cl)cc2Cl)cc1NC(=O)c1ccccc1` [SW393294, N-(4-(5-benzamido-1-methyl-1H-pyrazol-3-yl)-3-chlorophenyl)-2-chlorobenzamide], the IC50 was 0.28 µM.
For `O=C(Nc1nc(-c2ccc(NC(=O)c3ccccc3Cl)cc2)cs1)c1ccccc1` [SW393296, N-(4-(2-Benzamidothiazol-4-yl)phenyl)-2-chlorobenzamide], the IC50 was 1.9 µM.
`Cn1nc(-c2ccc(NC(=O)c3ccccc3CN3CCOCC3)cc2)cc1NC(=O)c1ccccc1` [SW393298, N-(4-(5-Benzamido-1-methyl-1H-pyrazol-3-yl)phenyl)-2-(morpholinomethyl)benzamide] was tested, and the IC50 was 0.15 µM.

Same assay, conditions: read-out: HCT116 IC50 (uM) HCT116 WT + ISRIB; wild type HCT116, compound plus 10 nM of ISRIB
`CSc1cccc(C(=O)Nc2cc(-c3ccc(NC(=O)c4ccccc4)cc3)nn2C)c1` [SW389160, N-(3-(4-Benzamidophenyl)-1-methyl-1H-pyrazol-5-yl)-3-(methylthio)benzamide] showed an IC50 of 2.48 µM.

Same assay, conditions: wild type HCT116; 10-point dose response in triplicate; multiple values = separate independent experiments
`Cn1nc(-c2ccc(NC(=O)C3CCCO3)cc2)cc1NC(=O)c1ccccc1` (single isomer, unassigned) [SW394516 (isomer 1)] was tested, and the “HCT116 IC50 (uM) HCT116 WT” value was “inactive”.
For `COc1cccc(C(=O)Nc2cc(-c3ccc(N)cc3)nn2C)c1` [SW388715, N-(3-(4-Aminophenyl)-1-methyl-1H-pyrazol-5-yl)-3-methoxybenzamide], the “HCT116 IC50 (uM) HCT116 WT” value was “inactive”.
`COc1ccc(C(=O)Nc2cc(-c3ccc(N)cc3)nn2C)cc1` [SW388717, N-(3-(4-Aminophenyl)-1-methyl-1H-pyrazol-5-yl)-4-methoxybenzamide] was tested, and the “HCT116 IC50 (uM) HCT116 WT” value was “inactive”.

Same assay, conditions: wild type HCT116; 10-point dose response in triplicate; multiple values = separate independent experiments; read-out: HCT116 IC50 (uM) HCT116 WT
Molecule `C#CCOc1ccccc1C(=O)Nc1ccc(-c2cc(NC(=O)c3cccc(N=[N+]=[N-])c3)n(C)n2)cc1` [SW393066, N-(4-(5-(3-Azidobenzamido)-1-methyl-1H-pyrazol-3-yl)phenyl)-2-(prop-2-yn-1-yloxy)benza-mide] has an IC50 of 9.4 µM.

Same assay, conditions: wild type HCT116; tested simultaneously with GCN2KO and +ISRIB; read-out: HCT116 IC50 (uM) HCT116 WT (repeat)
`C#CCOc1ccccc1C(=O)Nc1ccc(-c2cc(NC(=O)c3cccc(N=[N+]=[N-])c3)n(C)n2)cc1` [SW393066, N-(4-(5-(3-Azidobenzamido)-1-methyl-1H-pyrazol-3-yl)phenyl)-2-(prop-2-yn-1-yloxy)benza-mide] was tested, and the IC50 was 7.18 µM.
